Data as given in patent publication US20060223812A1, “Treating neurodegenerative conditions” (MAX-PLANCK-GESELLSCHAFT ZUR FORDERUNGDER WISSENSCHAFTEN, …, priority 2004, published 2006).

Assays:
[1] = tested on: N2a cells expressing K18/ΔK280; experiment: Tau aggregation in cells, sarkosyl extraction and Western blot densitometry; assay type: cell-based, mouse; details: 15 μM emodin
Description: A crucial test for the application of inhibitors is their effect in cell models of tauopathy. A neuroblastoma (N2a) cell line which allows inducible expression of the tau construct K18ΔK280 under the control of the tet-on transactivator was generated. This construct was chosen because it contains the FTDP17 mutation ΔK280 in the 4-repeat domain K18 which promotes the formation of β-structure and therefore aggregates readily, even in the absence of polyanionic inducers (von Bergen et al., 2001; {Barghorn, 2002).
The tau construct K18/ΔK280 was expressed in the mouse neuroblastoma cell line N2a in an inducible manner under the control of the reverse tetracycline-controlled transactivator (rtTA) as described elsewhere (Gossen & Bujard, 2002). […] After 3-7 days the cells were harvested and tested for tau aggregation, thioflavin S fluorescence, and viability.
The levels and solubility of the K18/ΔK280 tau protein were determined by the method of Greenberg and Davies (1990) which makes use of the insolubility of protein aggregates after treatment with sarkosyl. The supernatant and sarcosyl-insoluble pellets were analysed by Western blotting with the pan-tau antibody K9JA and analysed by densitometry. Aggregation of tau in cells was tested by the fluorescence of thioflavine S. ThS signals were scored in three independent fields containing 40 cells each. […]

PHFs from htau23 = biological target: T1, PHFs from htau23 (Homo sapiens, UniProt P10636); experiment: Filter trapping assay, depolymerisation of PHFs; assay type: biochemical; details: PVDF filter, antibody K9JA
T1 construct: made in house; host or cells: E. coli
T1 sequence (P10636 1-352 isoform P10636-2): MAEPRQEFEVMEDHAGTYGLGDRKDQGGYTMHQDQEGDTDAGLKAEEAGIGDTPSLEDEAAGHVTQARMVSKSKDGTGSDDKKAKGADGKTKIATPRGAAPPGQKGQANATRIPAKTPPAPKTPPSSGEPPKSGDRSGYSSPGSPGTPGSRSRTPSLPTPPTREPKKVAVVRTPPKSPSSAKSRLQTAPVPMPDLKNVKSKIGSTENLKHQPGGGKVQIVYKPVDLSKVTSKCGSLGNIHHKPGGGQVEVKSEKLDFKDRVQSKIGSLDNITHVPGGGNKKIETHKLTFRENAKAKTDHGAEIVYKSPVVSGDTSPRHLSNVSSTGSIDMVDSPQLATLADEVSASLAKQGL
Method: The effect of compounds on the depolymerisation of PHFs was analysed using a filter trapping assay. This assay monitors aggregated tau which is trapped on a membrane filter, whereas the soluble protein is washed through. Therefore the technique preferably detects larger filaments, similar to the ThS assay.
Aggregates of tau were trapped by filtration through a PVDF-membrane (pore diameter 0.45 μm, Schleicher and Schuell, Düren, Germany) adapted to 96-well dot blot apparatus. The PVDF-membrane was wetted with methanol and rinsed with PBS-buffer before incorporated into the dot blot apparatus. The samples were pipetted into 100 μl of PBS and filtered. The membrane was washed three times with PBS before taken out of the apparatus and blocked with 5% milk powder in PBS for 30 minutes in a rotational shaker at room temperature. The polyclonal antibody K9JA was used as primary antibody and incubated at a dilution of 1:20.000 at room temperature for one hour. […] After three times washing with TBS-Tween the signal was detected using the ECL system (Amersham Pharmacia) and pictures were taken with the digital gel documentation system Fuji film BAS3000 (Raytest, Straubenhardt, Germany). Quantification of the signals was performed with the AIDA-software package (Raytest, Straubenhardt, Germany).
(D) Depolymerisation of PHFs from htau23 measured by filter assay. […]

[2] = tested on: N2a cells expressing K18/ΔK280; experiment: Tau aggregation in cells, thioflavine S staining; assay type: cell-based, mouse; details: 15 μM emodin
Method: The tau construct K18/ΔK280 was expressed in the mouse neuroblastoma cell line N2a in an inducible manner under the control of the reverse tetracycline-controlled transactivator (rtTA) as described elsewhere (Gossen & Bujard, 2002). The inducible N2a/K18ΔK280 cells were cultured in MEM medium supplemented with 10% fetal calf serum, 2 mM glutamine and 0.1% nonessential amino acids. The expression of K18/ΔK280 was induced by addition 1 μg doxycyclin per 1 ml medium. The effect of aggregation inhibition was observed by adding the inhibitor emodin (15 μM). After 3-7 days the cells were harvested and tested for tau aggregation, thioflavin S fluorescence, and viability.
The levels and solubility of the K18/ΔK280 tau protein were determined by the method of Greenberg and Davies (1990) which makes use of the insolubility of protein aggregates after treatment with sarkosyl. The supernatant and sarcosyl-insoluble pellets were analysed by Western blotting with the pan-tau antibody K9JA and analysed by densitometry. Aggregation of tau in cells was tested by the fluorescence of thioflavine S. ThS signals were scored in three independent fields containing 40 cells each.
Two parallel cell cultures were incubated, one with 1 μg/ml doxycyclin (to induce the expression of the protein), another with 1 μg/ml doxycyclin and 15 μM emodin for 3 days. […]

K18 filaments (Y310W) = experiment: Tryptophan fluorescence depolymerisation assay, K18 filaments; assay type: biochemical, human; details: 60 μM compound
Method: (§1) For the fluorescence depolymerisation assay, 60 μM inhibitor compound were added to pre-formed PHFs (10 μM) and incubated overnight at 37° C. PHFs were formed by incubation of tau construct K19/Y310W (50 μM) or K18/ΔK280/Y310W with 12.5 μM heparin in volume of 100 μl at 37° C. in PBS, pH 7.4. Incubation time was three days. The formation of aggregates was observed as a shift of the emission maximum from ˜354 nm to ˜340 nm.
All other compounds yielded emission maxima of the protein after treatment around 350-353 nm, close to the value of soluble tau, indicating a depolymerisation efficiency of about 80-90%.
(§2) FIG. 5: Disassembly of preformed PHFs measured by tryptophan fluorescence shift assay and filter assay. Experiments were performed with tau constructs containing the Y310W mutation as in FIG. 3.

[3] = tested on: PHFs from K18/ΔK280/Y310W; experiment: Tryptophan fluorescence depolymerisation assay, K18/ΔK280; assay type: biochemical, human; details: 60 μM compound
Method: as §1, §2

Compound | reduction of sarkosyl-insoluble fraction ([1]; 7 days) [fold] | sarkosyl-insoluble fraction of total cellular tau (K18/ΔK280) ([1]; 7 days induction, untreated 14%) [%] | DC50 (PHFs from htau23) [nM] | inhibition of aggregation as measured by ThS [2] | cells with ThS signal ([2]; 3 days induction, without emodin 28%) [%] | depolymerisation efficiency, K18 filaments, Trp fluorescence (K18 filaments (Y310W)) [%] | depolymerising PHFs, K18/ΔK280, Trp fluorescence [3]
Cc1cc(O)c2c(c1)C(=O)c1cc(O)cc(O)c1C2=O [Emodin, 1,3,8-Trihydroxy-6-methyl-anthraquinone] | 5 | 3 | ~500 | about 2 fold | 15 |  | 
O=C(c1ccccc1)c1ccc(O)c(O)c1O [PHF005, 1-Phenyl-1-(2,3,4-trihydroxy-phenyl)-methanone] |  |  |  |  |  | 80 | most potent agent
